This passage reports MIC90 results from patent publication EP4775586A1, “DEUTERATED TETRACYCLIC DERIVATIVE AND USE THEREOF” (priority 2023, dated 2025).

Values after ≈ are worked out from the molar mass of the structure shown. Counter-ions that a name gives are not always drawn. Like-named read-outs stand apart in the source and are kept apart here.

As usually defined, the MIC90 is the lowest concentration that inhibits either 90% of growth or 90% of the strains tested, depending on the study.

The experiment relates to Mycobacterium tuberculosis H37Rv. Put plainly: Minimum inhibitory concentration (MIC90) against Mycobacterium tuberculosis H37Rv, Middlebrook 7H9, 96-well plate, 15 days. The experiment is classed as cell-based.
[1] abbreviates: Mycobacterium tuberculosis, H37RV, 360 h, Mycobacterium tuberculosis H37Rv, 15 days of incubation, 90% inhibition of growth, visual reading.
Setting [2] is: 360 h, Mycobacterium tuberculosis H37Rv, 15 days of incubation, 90% inhibition of growth, visual reading, read-out: MIC90.
Where [3] appears, read: Mycobacterium tuberculosis H37Rv, 15 days of incubation, 90% inhibition of growth, visual reading.

For `[2H]C1([2H])CCCC([2H])([2H])N1Cc1c(O)cc(C(C)(C)C)c2oc3c4ccc(O)cc4oc(=O)c3c12` [YF002, 10-(tert-Butyl)-3,8-dihydroxy-7-((piperidin-1-yl-2,2,6,6-d4)methyl)-6H-benzofuran[3,2-c]chromen-6-one], the MIC90 under setting [1] is not above 0.0039 µg/mL.

For `[2H]C([2H])(CC)C(=O)C1([2H])CCN(Cc2c(O)ccc3oc4c(c23)C(=O)OCc2cc(O)ccc2-4)CC1` [YF011, 8-((4-(Butanoyl-2,2-d2)piperidin-1-yl-4-d)methyl)-3,9-dihydroxybenzo[5,6]oxepino[4,3-b]benzofuran-7(5H)-one], the MIC90 under setting [2] came out at 0.0625 µg/mL (≈ 0.138 µM).

Under “H37RV, 360 h”, `[2H]c1c(O)c(C([2H])([2H])N2CCC([2H])(C(O)C([2H])([2H])CC)CC2)c2c3c(oc2c1[2H])-c1ccc(O)cc1C([2H])([2H])OC3=O` (stereo not drawn) [YF023, 3,9-Dihydroxy-8-((4-(1-hydroxybutyl-2,2-d2)piperidin-1-yl-1-d)methyl-d2)benzo[5,6]oxepino[4,3-b]benzofuran-7(5H)-one-5,5,10,11-d4] showed an MIC90 of 0.0156 µg/mL (≈ 0.0339 µM).

The molecule `[2H]C1([2H])CCCC([2H])([2H])N1C([2H])([2H])c1c(O)cc(C(C)(C)C)c2oc3c4ccc(O)cc4oc(=O)c3c12` [YF003, 10-(tert-Butyl)-3,8-dihydroxy-7-((piperidin-1-yl-2,2,6,6-d4)methyl-d2)-6H-benzofuran[3,2-c]chromen-6-one] showed an MIC90 under setting [1] not above 0.0039 µg/mL.

Turning to `[2H]C([2H])(c1c(O)ccc2oc3c(c12)C(=O)OCc1cc(O)ccc1-3)N1CCC(C(O)CCC)CC1` (stereo not drawn) [YF015, 3,9-Dihydroxy-8-((4-(1-hydroxybutyl)piperidin-1-yl)methyl-d2)benzo[5,6]oxepino[4,3-b]benzofuran-7(5H)-one], under setting [2], the MIC90 is 0.0156 µg/mL (≈ 0.0344 µM).

In turn, `[2H]C(O)(CCC)C1CC([2H])([2H])N(C([2H])([2H])c2c(O)ccc3oc4c(c23)C(=O)OCc2cc(O)ccc2-4)C([2H])([2H])C1` (stereo not drawn) [YF020, 3,9-Dihydroxy-8-((4-(1-hydroxybutyl-1-d)piperidin-2,2,6,6-d4-1-yl)methyl)benzo[5,6]oxepino[4,3-b]benzofuran-7(5H)-one] registered an MIC90 under setting [1] of 0.0156 µg/mL (≈ 0.034 µM).

Take `[2H]C1([2H])CC(c2cccc(Cl)c2)CC([2H])([2H])N1C([2H])([2H])c1c(O)ccc2oc3c(c12)C(=O)OCc1cc(O)ccc1-3` [YF008, 8-((4-(3-Chlorophenyl)piperidin-1-yl-2,2,6,6-d4)methyl-d2)-3,9-dihydroxybenzo[5,6]oxepino[4,3-b]benzofuran-7(5H)-one]: the MIC90 under setting [2] was 0.0625 µg/mL (≈ 0.126 µM).

“8-((4-(Butanoyl-2,2-d2)piperidin-1-yl-4-d)methyl-d2)-3,9-dihydroxybenzo[5,6]oxepino[4,3-b]benzofuran-7(5H)-one-5,5, 10,11-d4 [YF014]” came in with an MIC90 under setting [3] of 0.0625 µg/mL.

Molecule `[2H]C([2H])(c1c(O)cc(C(C)(C)C)c2oc3c4ccc(O)cc4oc(=O)c3c12)N1CCCCC1` [YF001, 10-(tert-Butyl)-3,8-dihydroxy-7-(piperidin-1-ylmethyl-d2)-6H-benzofuran[3,2-c]chromen-6-one] had an MIC90 under setting [1] not above 0.0039 µg/mL.

“3,9-Dihydroxy-8-((4-(1-hydroxybutyl-1-d)piperidin-1-yl)methyl-d2)benzo[5,6]oxepino[4,3-b]benzofuran-7(5H)-one hydrochloride [YF040]” came in with an MIC90 under setting [3] of 0.0156 µg/mL.

Consider `[2H]c1c(O)c(C([2H])([2H])N2C([2H])([2H])CC(C(=O)CCC)CC2([2H])[2H])c2c3c(oc2c1[2H])-c1ccc(O)cc1C([2H])([2H])OC3=O` [YF013, 8-((4-Butanoylpiperidin-1-yl-2,2,6,6-d4)-methyl-d2)-3,9-dihydroxybenzo[5,6]oxepino[4,3-b]benzofuran-7(5H)-one-5,5,10,11-d4], for which, under setting [2], the MIC90 is 0.0625 µg/mL (≈ 0.136 µM).

On to `[2H]c1c(O)c(C([2H])([2H])N2CCC([2H])(C([2H])(O)C([2H])([2H])CC)CC2)c2c3c(oc2c1[2H])-c1ccc(O)cc1C([2H])([2H])OC3=O` (stereo not drawn) [YF048, 3,9-Dihydroxy-8-((4-(1-hydroxybutyl-1,2,2-d3)piperidin-1-yl-1-d)methyl-d2)benzo[5,6]oxepino[4,3-b]benzofuran-7(5H)-one-5,5,10,11-d4 hydrochloride], for which the MIC90 under setting [1] is 0.0156 µg/mL.

Molecule `[2H]c1c(O)c(C([2H])([2H])N2C([2H])([2H])CC(C(O)CCC)CC2([2H])[2H])c2c3c(oc2c1[2H])-c1ccc(O)cc1C([2H])([2H])OC3=O` (stereo not drawn) [YF021, 3,9-Dihydroxy-8-((4-(1-hydroxybutyl)piperidin-2,2,6,6-d4-1-yl)methyl-d2)benzo[5,6]oxepino[4,3-b]benzofuran-7(5H)-one-5,5,10,11-d4] showed an MIC90 (H37RV, 360 h) of 0.0156 µg/mL (≈ 0.0338 µM).

For the molecule `[2H]c1c(O)c(C([2H])([2H])N2C([2H])([2H])CC(c3cccc(Cl)c3)CC2([2H])[2H])c2c3c(oc2c1[2H])-c1ccc(O)cc1C([2H])([2H])OC3=O` [YF009, 8-((4-(3-Chlorophenyl)piperidin-1-yl-2,2,6,6-d4)methyl-d2)-3,9-dihydroxybenzo[5,6]oxepino[4,3-b]benzofuran-7(5H)-one-5,5,10,11-d4], under setting [2], the MIC90 turned out to be 0.125 µg/mL (≈ 0.25 µM).

`[2H]c1c(O)c(C([2H])([2H])N2CCC([2H])(C([2H])(O)C([2H])([2H])CC)CC2)c2c3c(oc2c1[2H])-c1ccc(O)cc1C([2H])([2H])OC3=O` (stereo not drawn) [YF024, 3,9-Dihydroxy-8-((4-(1-hydroxybutyl-1,2,2-d3)piperidin-1-yl-1-d)methyl-d2)benzo[5,6]oxepino[4,3-b]benzofuran-7(5H)-one-5,5,10,11-d4] returned an MIC90 (H37RV, 360 h) of 0.0156 µg/mL (≈ 0.0338 µM).

On to `[2H]C([2H])(CC)C(O)C1([2H])CCN(Cc2c(O)ccc3oc4c(c23)C(=O)OCc2cc(O)ccc2-4)CC1` (stereo not drawn) [YF017, 3,9-Dihydroxy-8-((4-(1-hydroxybutyl-2,2-d2)piperidin-1-yl-4-d)methyl)benzo[5,6]oxepino[4,3-b]benzofuran-7(5H)-one], for which, under setting [2], the MIC90 was found to be 0.0156 µg/mL (≈ 0.0343 µM).

As to `[2H]C([2H])(c1c(O)ccc2oc3c(c12)C(=O)OCc1cc(O)ccc1-3)N1CCC(C(=O)CCC)CC1` [YF010, 8-((4-Butanoyl)piperidin-1-ylmethyl-d2)-3,9-dihydroxybenzo[5,6]oxepino[4,3-b]benzofuran-7(5H)-one], under setting [1], the MIC90 came out at 0.0625 µg/mL (≈ 0.138 µM).

Consider `[2H]C([2H])(CC)C([2H])(O)C1([2H])CCN(Cc2c(O)ccc3oc4c(c23)C(=O)OCc2cc(O)ccc2-4)CC1` (stereo not drawn) [YF018, 3,9-Dihydroxy-8-((4-(1-hydroxybutyl-1,2,2-d3)piperidin-1-yl-4-d)methyl)benzo[5,6]oxepino[4,3-b]benzofuran-7(5H)-one], for which the MIC90 under setting [2] amounted to 0.0156 µg/mL (≈ 0.0342 µM).

On to `[2H]C(O)(CCC)C1CCN(C([2H])([2H])c2c(O)ccc3oc4c(c23)C(=O)OCc2cc(O)ccc2-4)CC1` (stereo not drawn) [YF016, 3,9-Dihydroxy-8-((4-(1-hydroxybutyl-1-d)piperidin-1-yl)methyl-d2)benzo[5,6]oxepino[4,3-b]benzofuran-7(5H)-one], for which the MIC90 under setting [2] is 0.0156 µg/mL (≈ 0.0343 µM).

Regarding `[2H]C1([2H])N(Cc2c(O)cc(C(C)(C)C)c3oc4c5ccc(O)cc5oc(=O)c4c23)C([2H])([2H])C([2H])([2H])C([2H])([2H])C1([2H])[2H]` [YF004, 10-(tert-Butyl)-3,8-dihydroxy-7-((piperidin-1-yl-d10)methyl)-6H-benzofuran[3,2-c]chromen-6-one], the MIC90 under setting [1] was not above 0.0039 µg/mL.

In the case of `[2H]c1c(O)c(C([2H])([2H])N2CCC([2H])(C(O)C([2H])([2H])CC)CC2)c2c3c(oc2c1[2H])-c1ccc(O)cc1C([2H])([2H])OC3=O` (stereo not drawn) [YF047, 3,9-Dihydroxy-8-((4-(1-hydroxybutyl-2,2-d2)piperidin-1-yl-1-d)methyl-d2)benzo[5,6]oxepino[4,3-b]benzofuran-7(5H)-one-5,5,10,11-d4 hydrochloride], under setting [1], the MIC90 was determined as 0.0156 µg/mL.

`[2H]C1([2H])CC(C(O)CCC)CC([2H])([2H])N1C([2H])([2H])c1c(O)ccc2oc3c(c12)C(=O)OCc1cc(O)ccc1-3` (stereo not drawn) [YF019, 3,9-Dihydroxy-8-((4-(1-hydroxybutyl)piperidin-2,2,6,6-d4-1-yl)methyl)benzo[5,6]oxepino[4,3-b]benzofuran-7(5H)-one]: the MIC90 under setting [3] worked out at 0.0078 µg/mL (≈ 0.017 µM).

With `[2H]C([2H])(c1c(O)cc(C(C)(C)C)c2oc3c4ccc(O)cc4oc(=O)c3c12)N1C([2H])([2H])C([2H])([2H])C([2H])([2H])C([2H])([2H])C1([2H])[2H]` [YF005, 10-(tert-Butyl)-3,8-dihydroxy-7-((piperidin-1-yl-d10)methyl-d2)-6H-benzofuran[3,2-c]chromen-6-one], the MIC90 under setting [1] was not above 0.0039 µg/mL.

Regarding `[2H]C1([2H])CC(C(=O)CCC)CC([2H])([2H])N1C([2H])([2H])c1c(O)ccc2oc3c(c12)C(=O)OCc1cc(O)ccc1-3` [YF012, 8-((4-Butanoylpiperidin-1-yl-2,2,6,6-d4)-methyl-d2)-3,9-dihydroxybenzo[5,6]oxepino[4,3-b]benzofuran-7(5H)-one], the MIC90 under setting [2] was 0.0312 µg/mL (≈ 0.0686 µM).

With `[2H]C([2H])(c1c(O)ccc2oc3c(c12)C(=O)OCc1cc(O)ccc1-3)N1CCC(c2cccc(Cl)c2)CC1` [YF006, 8-((4-(3-Chlorophenyl)piperidin-1-yl)methyl-d2)-3,9-dihydroxybenzo[5,6]oxepino[4,3-b]benzofuran-7(5H)-one], under setting [2], the MIC90 came to 0.125 µg/mL (≈ 0.254 µM).

In the case of `[2H]C1([2H])CC(c2cccc(Cl)c2)CC([2H])([2H])N1Cc1c(O)ccc2oc3c(c12)C(=O)OCc1cc(O)ccc1-3` [YF007, 8-((4-(3-Chlorophenyl)piperidin-1-yl-2,2,6,6-d4)methyl)-3,9-dihydroxybenzo[5,6]oxepino[4,3-b]benzofuran-7(5H)-one], the MIC90 under setting [2] was 0.125 µg/mL (≈ 0.253 µM).

As for `[2H]c1c(O)c(C([2H])([2H])N2C([2H])([2H])CC(C(O)CCC)CC2([2H])[2H])c2c3c(oc2c1[2H])-c1ccc(O)cc1C([2H])([2H])OC3=O` (stereo not drawn) [YF045, 3,9-Dihydroxy-8-((4-(1-hydroxybutyl)piperidin-2,2,6,6-d4-1-yl)methyl-d2)benzo[5,6]oxepino[4,3-b]benzofuran-7(5H)-one-5,5,10,11-d4 hydrochloride], the MIC90 under setting [1] stood at 0.0156 µg/mL.
